Results: paper doi:10.1101/2020.06.20.162875v1 (biorxiv, 2020)
Where two headings read alike, the source gives them in different places.

Columns and labels:
[1] = target: T1, PNA (peanut lectin, peanut agglutinin) (Arachis hypogaea, UniProt P02872); assay: isothermal titration calorimetry; format: binding
T1 sequence (P02872 24-259): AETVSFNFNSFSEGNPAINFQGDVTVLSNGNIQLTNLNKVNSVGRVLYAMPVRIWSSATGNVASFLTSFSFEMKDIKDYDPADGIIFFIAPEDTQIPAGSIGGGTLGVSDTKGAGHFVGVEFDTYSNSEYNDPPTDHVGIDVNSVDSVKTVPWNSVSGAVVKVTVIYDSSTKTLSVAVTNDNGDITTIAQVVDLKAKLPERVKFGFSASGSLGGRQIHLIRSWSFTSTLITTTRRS

[2] = target: T1, PNA (peanut lectin, peanut agglutinin); assay: isothermal titration calorimetry; format: binding; remark: listed apart in the source

Row | SMILES | Kd [2] [µM] | also measured
1 | OC[C@H]1O[C@@H](O[C@H]2[C@H](O)[C@@H](O)C(O)O[C@@H]2CO)[C@H](O)[C@@H](O)[C@H]1O (some centres unmarked) [Lactose] |  | Kd ([1]; 298 K, independent single-site model, reference compound): 644 µM
2 | CO[C@H]1O[C@H](Cn2cc(CNC(=O)CCC(=O)N[C@@H]3O[C@H](CO)[C@H](O)[C@H](O)[C@H]3O)nn2)[C@@H](O)[C@H](O)[C@H]1O [NGS] | 1620 | 
3 | CO[C@H]1O[C@H](Cn2cc(CSC[C@H]3O[C@@H](S[C@@H]4O[C@H](CO)[C@H](O)[C@H](O)[C@H]4O)[C@H](O)[C@@H](O)[C@@H]3O)nn2)[C@@H](O)[C@H](O)[C@H]1O [STGD] | 420 | 
4 | C#CCSC[C@H]1O[C@@H](S[C@@H]2O[C@H](CO)[C@H](O)[C@H](O)[C@H]2O)[C@H](O)[C@@H](O)[C@@H]1O [STG] | 552 | 
5 | OC[C@H]1O[C@@H](S[C@@H]2O[C@H](CO)[C@H](O)[C@H](O)[C@H]2O)[C@H](O)[C@@H](O)[C@H]1O [TDG] |  | Kd [1]: 524 µM
6 | O=C(CCC(=O)N[C@@H]1O[C@H](CO)[C@H](O)[C@H](O)[C@H]1O)NCc1cn([C@H]2CO[C@H]3[C@@H]2OC[C@@H]3n2cc(CNC(=O)CCC(=O)N[C@@H]3O[C@H](CO)[C@H](O)[C@H](O)[C@H]3O)nn2)nn1 [diNGS] | 698 | 
7 | O=C(NCc1cn(C2COC3C2OCC3n2cc(CNC(=O)[C@H](O)[C@@H](O)C(=O)N[C@@H]3O[C@H](CO)[C@H](O)[C@H](O)[C@H]3O)nn2)nn1)[C@H](O)[C@@H](O)C(=O)N[C@@H]1O[C@H](CO)[C@H](O)[C@H](O)[C@H]1O (some centres unmarked) [diNGT] | 544 | 
8 | OC[C@H]1O[C@@H](S[C@@H]2O[C@H](CSCc3cn(C[C@H]4O[C@H](O[C@H]5O[C@H](Cn6cc(CSC[C@H]7O[C@@H](S[C@@H]8O[C@H](CO)[C@H](O)[C@H](O)[C@H]8O)[C@H](O)[C@@H](O)[C@@H]7O)nn6)[C@@H](O)[C@H](O)[C@H]5O)[C@H](O)[C@@H](O)[C@@H]4O)nn3)[C@@H](O)[C@H](O)[C@H]2O)[C@H](O)[C@@H](O)[C@H]1O [diSTGD] | 161 | 
